What is called IC50 is the midpoint of a concentration-inhibition curve.

Here are results for 48 molecules from patent US20240254119A1 (THIRD HARMONIC BIO, INC., priority 2022, published 2024).

Assay [1] deals with KIT phosphorylation in M-07e cells. Put plainly: Cell-based KIT phosphorylation in M-07e cells by pKIT ELISA. More on the design: species or system human. Particulars: SCF stimulation. In outline: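 Serum-starved M-07e cells (1 × 10^6/mL, overnight) were treated with compounds (8-point 3-fold series from 1 uM) for 2 h at 37 °C, then stimulated with 100 ng/mL SCF for 5 min. Lysate phospho-KIT was captured on anti-phospho-CD117 plates, detected with anti-pY-HRP, and read at 450 nm against a pc-KIT standard curve.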

The target of assay [2] is T1, wtKIT (Homo sapiens, UniProt P10721).
T1 construct: 1888289AM in the reaction mixtures
In words: HTRF biochemical assay, wtKIT (phosphorylation of a peptide substrate). The following applies: Table 4. In outline: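 wtKIT (5.0 nM) phosphorylating 1 µM FAM-labelled peptide with 400 µM ATP and 10 mM MnCl2 in 100 mM HEPES pH 7.5, 1% DMSO, 3 h at 25 °C. EDTA quench; phosphopeptide detected with anti-phosphotyrosine antibody by HTRF. Enzyme titrated for 10-20% substrate conversion.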

T1 sequence (P10721 26-976): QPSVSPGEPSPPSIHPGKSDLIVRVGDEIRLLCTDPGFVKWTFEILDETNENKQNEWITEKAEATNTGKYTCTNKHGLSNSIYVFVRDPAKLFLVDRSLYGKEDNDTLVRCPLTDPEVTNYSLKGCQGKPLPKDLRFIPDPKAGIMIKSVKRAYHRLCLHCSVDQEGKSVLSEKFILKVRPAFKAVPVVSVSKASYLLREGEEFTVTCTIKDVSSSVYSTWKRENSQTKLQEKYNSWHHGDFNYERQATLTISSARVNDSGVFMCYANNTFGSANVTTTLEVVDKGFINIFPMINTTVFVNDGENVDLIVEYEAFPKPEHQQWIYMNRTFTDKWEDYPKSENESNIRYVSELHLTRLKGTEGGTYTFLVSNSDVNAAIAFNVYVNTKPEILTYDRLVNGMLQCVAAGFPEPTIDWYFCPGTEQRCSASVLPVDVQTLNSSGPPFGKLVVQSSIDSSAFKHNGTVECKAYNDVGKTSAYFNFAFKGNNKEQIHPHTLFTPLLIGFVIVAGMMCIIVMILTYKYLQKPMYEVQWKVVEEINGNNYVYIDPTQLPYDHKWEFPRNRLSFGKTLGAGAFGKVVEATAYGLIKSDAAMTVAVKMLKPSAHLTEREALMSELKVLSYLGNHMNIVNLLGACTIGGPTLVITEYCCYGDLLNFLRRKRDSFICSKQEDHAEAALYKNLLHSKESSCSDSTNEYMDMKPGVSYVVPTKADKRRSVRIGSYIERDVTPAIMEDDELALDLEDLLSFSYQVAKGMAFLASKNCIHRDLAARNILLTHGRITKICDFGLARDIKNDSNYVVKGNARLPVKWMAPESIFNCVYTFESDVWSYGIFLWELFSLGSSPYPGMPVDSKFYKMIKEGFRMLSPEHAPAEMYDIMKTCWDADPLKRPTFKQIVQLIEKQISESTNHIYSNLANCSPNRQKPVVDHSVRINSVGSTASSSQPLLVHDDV

Regarding `Cc1ccc(-c2noc([C@H]3C[C@@H]3F)n2)cc1NC(=O)c1cnc2cc(COCC(C)(C)O)ccn12` [Compound I-71, N-[5-[5-[(1R,2S)-2-fluorocyclopropyl]-1,2,4-oxadiazol-3-yl]-2-methyl-phenyl]-7-[(2-hydroxy-2-methyl-propoxy)methyl]imidazo[1,2-a]pyridine-3-carboxamide], the IC50 in assay [1] (Homo sapiens) and in assay [2] was at most 50 nM each time.

In the case of `COC(=O)N1CC(c2nc(-c3ccc(C)c(NC(=O)c4cnn5ccc(Br)cc45)c3)no2)C1` [Compound I-280], in assay [1], the IC50 is at most 50 nM.

As to `Cc1ccc(-c2noc(C3CCC(F)C3)n2)cc1NC(=O)c1cnc2ccccn12` (racemic) [Compound I-319], the IC50 in assay [1] was at most 50 nM.

For the molecule `Cc1ccc(-c2noc(CC3CC(F)(F)C3)n2)cc1NC(=O)c1cnc2ccccn12` [Compound I-124], in assay [1], the IC50 was at most 50 nM.

`Cc1ccc(-c2noc(C3CC(F)C3)n2)cc1NC(=O)c1cnc2ccccn12` (centres unmarked) [Compound I-381]: the IC50 in assay [1] is at most 50 nM.

As to `COc1ccn2c(C(=O)Nc3cc(-c4noc(C5CC(F)(F)C5)n4)ccc3C)cnc2c1` [Compound I-96], the half-maximal inhibitory concentration (IC50) in assay [1] and in assay [2] was at most 50 nM each time.

For `Cc1ccc(-c2noc([C@H](C)O)n2)cc1NC(=O)c1cnc2ccccn12` [Compound I-271], in assay [1], the IC50 was at most 50 nM.

Take `Cc1nc(-c2ccc(Cl)c(NC(=O)c3cnc4ccccn34)c2)no1` [Compound I-172]: the IC50 in assay [1] lay within 500 to 5000 nM.

In the case of `Cc1ccc(-c2noc([C@H]3C[C@@H]3F)n2)cc1NC(=O)c1cnc2ccc(F)cn12` [Compound I-288], the IC50 is 50 to 500 nM in assay [1] and at most 50 nM in assay [2].

Regarding `Cc1ccc(-c2noc(CC(C)(C)O)n2)cc1NC(=O)c1cnc2ccccn12` [Compound I-336], the IC50 in assay [1] was at most 50 nM; in assay [2], 50 to 500 nM.

Regarding `Cc1nc(-c2ccc(C)c(NC(=O)c3cnc4cc(C(F)F)ccn34)c2)no1` [Compound I-134], the IC50 in assay [1] was 500 to 5000 nM.

For `Cc1nc(-c2ccc(C)c(NC(=O)c3cnc4ccc(N(C)C)cn34)c2)no1` [Compound I-205], the IC50 in assay [1] and in assay [2] was at most 50 nM throughout.

`COCCS(=O)(=O)N1CC(c2nc(-c3ccc(C)c(NC(=O)c4cnc5ccccn45)c3)no2)C1` [Compound I-235]: the IC50 in assay [1] and in assay [2] was 50 to 500 nM in each case.

Take `Cc1ccc(-c2noc(CC(O)C(F)F)n2)cc1NC(=O)c1cnc2ccccn12` (centres unmarked) [Compound I-122]: the IC50 in assay [1] and in assay [2] was at most 50 nM throughout.

For the molecule `Cc1ccc(-c2noc(CC(=O)O)n2)cc1NC(=O)c1cnc2ccccn12` [Compound I-335], in assay [2], the 50% inhibitory concentration (IC50) lay in the range of 50 to 500 nM.

`Cc1ccc(-c2noc(C3COC3)n2)cc1NC(=O)c1cnc2ccccn12` [Compound I-138]: the IC50 in assay [1] was at most 50 nM.

On to `Cc1ccc(-c2noc(C3CCC3F)n2)cc1NC(=O)c1cnc2ccccn12` (racemic) [Compound I-376], for which the IC50 in assay [1] was at most 50 nM.

For `COC(=O)N1CC(c2nc(-c3ccc(C)c(NC(=O)c4cnc5cc(OC[C@H](C)O)ccn45)c3)no2)C1` [Compound I-262], the IC50 in assay [1] and in assay [2] was at most 50 nM in each case.

Consider `COC(=O)N1CC(c2nc(-c3ccc(C)c(NC(=O)c4cnc5cc(OC[C@@H](C)O)ccn45)c3)no2)C1` [Compound I-263], for which the half-inhibitory concentration (IC50) in assay [1] and in assay [2] was at most 50 nM each time.

Regarding `Cc1ccc(-c2noc(CO)n2)cc1NC(=O)c1cnc2ccccn12` [Compound I-337], the IC50 in assay [1] is at most 50 nM.

As to `CCCS(=O)(=O)N1CC(c2nc(-c3ccc(Cl)c(NC(=O)c4cnc5ccccn45)c3)no2)C1` [Compound I-220], the values for the IC50 in assay [1] and in assay [2] were 50 to 500 nM and at most 50 nM, respectively.

As for `Cc1ccc(-c2noc(C3CC(C)(F)C3)n2)cc1NC(=O)c1cnc2ccccn12` (centres unmarked) [Compound I-387], the IC50 in assay [1] is at most 50 nM.

For the molecule `COc1ccn2c(C(=O)Nc3cc(-c4noc(CC5CC(F)(F)C5)n4)ccc3C)cnc2c1` [Compound I-91], the IC50 in assay [1] and in assay [2] was at most 50 nM in each case.

`Cc1ccc(-c2noc([C@H]3C[C@@H]3F)n2)cc1NC(=O)c1cnn2ccccc12` [Compound I-109]: the IC50 in assay [1] and in assay [2] was at most 50 nM in each case.

Turning to `COc1ccc2ncc(C(=O)Nc3cc(-c4noc(C[C@@H](C)O)n4)ccc3C)n2c1` [Compound I-119], the half-inhibitory concentration (IC50) in assay [1] and in assay [2] was at most 50 nM in each case.

Consider `COC(=O)N1CC(c2nc(-c3ccc(C(F)F)c(NC(=O)c4cnc5ccccn45)c3)no2)C1` [Compound I-225], for which the IC50 in assay [1] and in assay [2] was at most 50 nM in each case.

Turning to `Cc1ccc(-c2noc(C(C)NS(C)(=O)=O)n2)cc1NC(=O)c1cnc2ccccn12` (single isomer, unassigned) [Compound I-237], the IC50 in assay [1] and in assay [2] was 50 to 500 nM in each case.

For the molecule `Cc1ccc(-c2noc(C3CCN3)n2)cc1NC(=O)c1cnc2ccccn12` (racemic) [Compound I-394], the IC50 in assay [2] fell in the range of 50 to 500 nM.

For `Cc1ccc(-c2noc(C(C)NS(C)(=O)=O)n2)cc1NC(=O)c1cnc2ccccn12` (single isomer, unassigned) [Compound I-238], the IC50 in assay [1] and in assay [2] was 50 to 500 nM throughout.

For the molecule `COc1ccn2c(C(=O)Nc3cc(-c4noc(CC(O)C(F)F)n4)ccc3C)cnc2c1` (single isomer, unassigned) [Compound I-76], the IC50 in assay [1] and in assay [2] was at most 50 nM throughout.

`COC(=O)N1CC(c2nc(-c3ccc(Cl)c(NC(=O)c4cnc5ccccn45)c3)no2)C1` [Compound I-339]: the 50% inhibitory concentration (IC50) in assay [1] and in assay [2] was at most 50 nM in each case.

In the case of `COC(=O)N1CC(c2nc(-c3ccc(C)c(NC(=O)c4cnc5cc(O[C@@H](C)CO)ccn45)c3)no2)C1` (single isomer, unassigned) [Compound I-217], the figures for the half-inhibitory concentration (IC50) in assay [1] and in assay [2] were 50 to 500 nM and at most 50 nM, respectively.

For `O=C(Nc1cc(-c2noc([C@H]3C[C@@H]3F)n2)ccc1Cl)c1cnc2ccccn12` [Compound I-341], in assay [1], the IC50 is 50 to 500 nM.

In the case of `Cc1ccc(-c2noc(CC(O)C(F)F)n2)cc1NC(=O)c1cnc2ccccn12` (centres unmarked) [Compound I-114], the IC50 in assay [1] and in assay [2] was at most 50 nM throughout.

Take `Cc1ccc(-c2noc(CC3CC3(F)F)n2)cc1NC(=O)c1cnc2ccccn12` (centres unmarked) [Compound I-125]: the half-maximal inhibitory concentration (IC50) in assay [1] is at most 50 nM.

In the case of `COCCOCc1ccn2c(C(=O)Nc3cc(-c4noc([C@H]5C[C@@H]5F)n4)ccc3C)cnc2c1` [Compound I-84], the 50% inhibitory concentration (IC50) in assay [1] and in assay [2] was at most 50 nM in each case.

Consider `COc1ccn2c(C(=O)Nc3cc(-c4noc(C[C@H](C)O)n4)ccc3C)cnc2c1` [Compound I-94], for which the IC50 in assay [1] and in assay [2] was at most 50 nM each time.

Regarding `CCOc1ccn2c(C(=O)Nc3cc(-c4noc([C@H]5C[C@@H]5F)n4)ccc3C)cnc2c1` [Compound I-93], the IC50 in assay [1] and in assay [2] was at most 50 nM throughout.

`Cc1nc(-c2ccc(C)c(NC(=O)c3cnc4ccccn34)c2)no1` [Compound I-360]: the IC50 in assay [1] and in assay [2] was at most 50 nM in each case.

On to `Cc1ccc(-c2noc([C@H]3C[C@@H]3F)n2)cc1NC(=O)c1cnc2cc(OC(F)(F)F)ccn12` [Compound I-87], for which the half-maximal inhibitory concentration (IC50) in assay [1] was at most 50 nM; in assay [2], 50 to 500 nM.

On to `Cc1ccc(-c2noc([C@H]3C[C@@H]3F)n2)cc1NC(=O)c1cnc2cc(OC(C)C)ccn12` [Compound I-88], for which the IC50 in assay [1] and in assay [2] was at most 50 nM throughout.

For the molecule `Cc1ccc(-c2noc(C3CC(OCCF)C3)n2)cc1NC(=O)c1cnc2ccccn12` (centres unmarked) [Compound I-369], in assay [2], the IC50 is at most 50 nM.

On to `Cc1ccc(-c2noc(C3CC4(CCC4)C3)n2)cc1NC(=O)c1cnc2ccccn12` [Compound I-367], for which, in assay [1], the IC50 was at most 50 nM.

Regarding `Cc1ccc(-c2noc(CCO)n2)cc1NC(=O)c1cnc2ccccn12` [Compound I-306], the IC50 in assay [1] is at most 50 nM; in assay [2], 50 to 500 nM.

With `Cc1ccc(-c2noc([C@H]3CC(F)(F)CN3)n2)cc1NC(=O)c1cnc2ccccn12` [Compound I-359], the IC50 in assay [1] and in assay [2] was 50 to 500 nM throughout.

With `Cc1ccc(-c2noc(C3CCC3F)n2)cc1NC(=O)c1cnc2ccccn12` (racemic) [Compound I-377], the half-maximal inhibitory concentration (IC50) in assay [1] was at most 50 nM.

As for `COC(=O)N1CC(c2nc(-c3ccc(C)c(NC(=O)c4cnn5cc(C#N)ccc45)c3)no2)C1` [Compound I-204], in assay [1], the half-inhibitory concentration (IC50) was 50 to 500 nM.

Take `Cc1ccc(-c2cnc(N3CC(F)(F)C3)o2)cc1NC(=O)c1cnc2ccccn12` [Compound I-213]: the IC50 in assay [1] and in assay [2] was 50 to 500 nM in each case.
